Reference: the supplement of paper PMC10883282

How the values were obtained:
Assay in all cases: relative viability vs DMSO control (72 h) (fraction); higher = more viable cells
G401 = tested on: G401
Procedure, shortened: (§1)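 ATPLite readings, expressed as percent growth and averaged over up to triplicate wells, provided relative viability. Before reading, sarcoma cell lines seeded in 384-well plates to reach 80–90% confluence received 2.5 µl of serially diluted compound after 24 h, from source plates of 10 mM to 0.0002 mM. Plates were held 72 h at 37 °C, 5% CO2, with 0.1% DMSO as vehicle and a 5 µM positive control. The data were rescaled to 1 for full and 0 for none.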

A204 = tested on: A204
Procedure, shortened: as §1

SW1353 = tested on: SW1353
Procedure, shortened: as §1

SK-ES-1 = tested on: SK-ES-1
Procedure, shortened: as §1

HT1080 = tested on: HT1080
Procedure, shortened: as §1

SW684 = tested on: SW684
Procedure, shortened: as §1

SW982 = tested on: SW982
Procedure, shortened: as §1

SW872 = tested on: SW872
Procedure, shortened: as §1

RD-ES = tested on: RD-ES
Procedure, shortened: as §1

KHOS-240S = tested on: KHOS-240S
Procedure, shortened: as §1

KHOS-NP = tested on: KHOS-NP
Procedure, shortened: as §1

SYO-1 = tested on: SYO-1
Procedure, shortened: as §1

COC(=O)c1ccc2c(c1)NC(=O)/C2=C(\Nc1ccc(N(C)C(=O)CN2CCN(C)CC2)cc1)c1ccccc1 [Nintedanib]
Conditions	relative viability
A204, 0.00017 µM	1.04
A204, 0.00051 µM	1.04
A204, 0.00152 µM	1.02
A204, 0.00457 µM	0.997
A204, 0.01372 µM	0.831
A204, 0.04115 µM	0.566
A204, 0.1235 µM	0.434
A204, 0.3704 µM	0.392
A204, 1.111 µM	0.376
A204, 3.333 µM	0.318
A204, 10 µM	0.22
G401, 0.00017 µM	1
G401, 0.00051 µM	0.99
G401, 0.00152 µM	0.992
G401, 0.00457 µM	1.03
G401, 0.01372 µM	0.98
G401, 0.04115 µM	0.987
G401, 0.1235 µM	0.977
G401, 0.3704 µM	0.891
G401, 1.111 µM	0.721
G401, 3.333 µM	0.485
G401, 10 µM	0.0535
HT1080, 0.00017 µM	1.05
HT1080, 0.00051 µM	1.08
HT1080, 0.00152 µM	1.06
HT1080, 0.00457 µM	1.06
HT1080, 0.01372 µM	1.069
HT1080, 0.04115 µM	1.07
HT1080, 0.1235 µM	1.06
HT1080, 0.3704 µM	1.06
HT1080, 1.111 µM	1.07
HT1080, 3.333 µM	1.01
HT1080, 10 µM	0.084
KHOS-240S, 0.00017 µM	1.05
KHOS-240S, 0.00051 µM	1.05
KHOS-240S, 0.00152 µM	1.04
KHOS-240S, 0.00457 µM	1.04
KHOS-240S, 0.01372 µM	1.04
KHOS-240S, 0.04115 µM	1.02
KHOS-240S, 0.1235 µM	0.985
KHOS-240S, 0.3704 µM	0.875
KHOS-240S, 1.111 µM	0.702
KHOS-240S, 3.333 µM	0.6
KHOS-240S, 10 µM	0.101
KHOS-NP, 0.00017 µM	1.06
KHOS-NP, 0.00051 µM	1.06
KHOS-NP, 0.00152 µM	1.06
KHOS-NP, 0.00457 µM	1.06
KHOS-NP, 0.01372 µM	1.06
KHOS-NP, 0.04115 µM	1.06
KHOS-NP, 0.1235 µM	1.05
KHOS-NP, 0.3704 µM	1.04
KHOS-NP, 1.111 µM	1.037
KHOS-NP, 3.333 µM	0.982
KHOS-NP, 10 µM	0.146
RD-ES, 0.00017 µM	0.955
RD-ES, 0.00051 µM	0.96
RD-ES, 0.00152 µM	0.944
RD-ES, 0.00457 µM	0.958
RD-ES, 0.01372 µM	0.945
RD-ES, 0.04115 µM	0.927
RD-ES, 0.1235 µM	0.806
RD-ES, 0.3704 µM	0.73
RD-ES, 1.111 µM	0.706
RD-ES, 3.333 µM	0.667
RD-ES, 10 µM	0.203
SK-ES-1, 0.00017 µM	1
SK-ES-1, 0.00051 µM	0.951
SK-ES-1, 0.00152 µM	0.945
SK-ES-1, 0.00457 µM	0.961
SK-ES-1, 0.01372 µM	1.03
SK-ES-1, 0.04115 µM	1.03
SK-ES-1, 0.1235 µM	0.986
SK-ES-1, 0.3704 µM	0.883
SK-ES-1, 1.111 µM	0.571
SK-ES-1, 3.333 µM	0.399
SK-ES-1, 10 µM	0.0168
SW684, 0.00017 µM	1.09
SW684, 0.00051 µM	1.11
SW684, 0.00152 µM	1.15
SW684, 0.00457 µM	1.12
SW684, 0.01372 µM	1.13
SW684, 0.04115 µM	1.17
SW684, 0.1235 µM	1.13
SW684, 0.3704 µM	1.11
SW684, 1.111 µM	1
SW684, 3.333 µM	0.96
SW684, 10 µM	0.422
SW872, 0.00017 µM	1.05
SW872, 0.00051 µM	1.03
SW872, 0.00152 µM	1.02
SW872, 0.00457 µM	1.03
SW872, 0.01372 µM	1.03
SW872, 0.04115 µM	1.03
SW872, 0.1235 µM	1.03
SW872, 0.3704 µM	1.04
SW872, 1.111 µM	0.989
SW872, 3.333 µM	0.963
SW872, 10 µM	0.809
SW982, 0.00017 µM	0.999
SW982, 0.00051 µM	0.996
SW982, 0.00152 µM	1
SW982, 0.00457 µM	0.994
SW982, 0.01372 µM	0.975
SW982, 0.04115 µM	0.965
SW982, 0.1235 µM	1
SW982, 0.3704 µM	0.961
SW982, 1.111 µM	0.87
SW982, 3.333 µM	0.823
SW982, 10 µM	0.0461
SW1353, 0.00017 µM	0.995
SW1353, 0.00051 µM	1.07
SW1353, 0.00152 µM	1.02
SW1353, 0.00457 µM	1.04
SW1353, 0.01372 µM	1.02
SW1353, 0.04115 µM	1.01
SW1353, 0.1235 µM	1.01
SW1353, 0.3704 µM	0.999
SW1353, 1.111 µM	0.958
SW1353, 3.333 µM	0.947
SW1353, 10 µM	0.57
SYO-1, 0.00017 µM	1
SYO-1, 0.00051 µM	0.985
SYO-1, 0.00152 µM	0.971
SYO-1, 0.00457 µM	0.97
SYO-1, 0.01372 µM	0.901
SYO-1, 0.04115 µM	0.713
SYO-1, 0.1235 µM	0.643
SYO-1, 0.3704 µM	0.467
SYO-1, 1.111 µM	0.369
SYO-1, 3.333 µM	0.292
SYO-1, 10 µM	0.099
